Values quoted from earlier work, collected in patent publication US8309061B2, “Formulations and methods for treating rhinosinusitis” (Dey Pharma, L.P., priority 2003, dated 2012).

CCC(=O)O[C@]1(C(=O)SCF)[C@H](C)C[C@H]2[C@@H]3C[C@H](F)C4=CC(=O)C=C[C@]4(C)[C@@]3(F)[C@@H](O)C[C@@]21C [Fluticasone propionate, S-(fluromethyl)6α,9-difluoro-11β-17-dihydroxy-16α-methyl-3-oxoandrosta-1,4-diene-17β-carbothioate, 17-propionate]
solubility in dimethyl sulfoxide and dimethylformamide (dimethyl sulfoxide and dimethylformamide): freely soluble | solubility in methanol and 95% ethanol (methanol and 95% ethanol): slightly soluble | solubility in water (water): practically insoluble
